According to US8642590B2, “Alkylcyclohexylethers of dihydrotetraazabenzoazulenes” (Hoffmann-La Roche Inc., priority 2008, dated 2014):
Structures can show the parent of a compound that is named as a salt.

Each compound was assayed against T1, human V1a receptor (Homo sapiens, UniProt P37288) (assay: human V1a receptor binding study (3H-Vasopressin, SPA beads, HEK293 membranes)). Settings: not given.
T1 construct: expressed in transfected cells; host or cells: HEK293 cells, transiently transfected; cell membranes prepared
Description: The human V1a receptor was cloned by RT-PCR from total human liver RNA. The coding sequence was subcloned in an expression vector after sequencing to confirm the identity of the amplified sequence. […] Cell membranes were prepared from HEK293 cells transiently transfected with the expression vector and grown in 20 liter fermenters with the following protocol.
50 g of cells are resuspended in 30 ml freshly prepared ice cold Lysis buffer (50 mM HEPES, 1 mM EDTA, 10 mM magnesium dichloride adjusted to pH=7.4+complete cocktail of protease inhibitor (Roche Diagnostics)). Homogenized with Polytron for 1 min and sonicated on ice for 2×2 minutes at 80% intensity (Vibracell sonicator). The preparation is centrifuged 20 min at 500 g at 4° C., the pellet is discarded and the supernatant centrifuged 1 hour at 43,000 g at 4° C. (19,000 rpm). The pellet is resuspended in 12.5 ml Lysis buffer+12.5 ml Sucrose 20% and homogenized using a Polytron for 1-2 min. The protein concentration is determined by the Bradford method and aliquots are stored at −80° C. until use. For binding studies 60 mg Yttrium silicate SPA beads (Amersham) are mixed with an aliquot of membrane in binding buffer (50 mM Tris, 120 mM sodium chloride, 5 mM potassium chloride, 2 mM Calcium dichloride, 10 mM magnesium dichloride) for 15 minutes with mixing. 50 μl of bead/membrane mixture is then added to each well of a 96 well plate, followed by 50 μl of 4 nM 3H-Vasopressin (American Radiolabeled Chemicals). For total binding measurement 100 μl of binding buffer are added to the respective wells, for non-specific binding 100 μl of 8.4 mM cold vasopressin and for compound testing 100 μl of a serial dilution of each compound in 2% dimethyl sulfoxide. The plate is incubated 1 h at room temperature, centrifuged 1 min at 1000 g and counted on a Packard Top-Count. Non-specific binding counts are subtracted from each well and data is normalized to the maximum specific binding set at 100%. To calculate an IC 50 the curve is fitted using a non-linear regression model (XLfit) and the Ki is calculated using the Cheng-Prussoff equation.

T1 sequence (P37288 whole entry): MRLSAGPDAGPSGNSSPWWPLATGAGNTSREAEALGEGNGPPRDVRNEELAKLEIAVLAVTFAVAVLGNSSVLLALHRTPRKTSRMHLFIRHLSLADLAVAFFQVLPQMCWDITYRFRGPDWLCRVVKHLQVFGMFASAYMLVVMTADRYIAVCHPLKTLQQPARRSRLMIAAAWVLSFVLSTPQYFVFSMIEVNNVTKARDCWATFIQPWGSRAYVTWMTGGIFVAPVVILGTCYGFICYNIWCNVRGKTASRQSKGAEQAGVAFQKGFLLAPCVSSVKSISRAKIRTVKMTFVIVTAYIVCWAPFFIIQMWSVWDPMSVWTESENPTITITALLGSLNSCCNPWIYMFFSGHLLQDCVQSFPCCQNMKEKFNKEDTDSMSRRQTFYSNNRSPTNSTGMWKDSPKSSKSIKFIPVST

SMILES	Ki
CC(C)(C)OC(=O)N1Cc2cc(Cl)ccc2-n2c(nnc2[C@H]2CC[C@@H](OC3CCC3)CC2)C1 [Example 33, cis-8-Chloro-1-(4-cyclobutoxy-cyclohexyl)-4H,6H-2,3,5,10b-tetraaza-benzo[e]azulene-5-carboxylic acid tert-butyl ester]	7.59 nM
CC(C)(C)OC(=O)N1Cc2cc(Cl)ccc2-n2c(nnc2[C@H]2CC[C@H](OC3CCC3)CC2)C1 [Example 30, trans-8-Chloro-1-(4-cyclobutoxy-cyclohexyl)-4H,6H-2,3,5,10b-tetraaza-benzo[e]azulene-5-carboxylic acid tert-butyl ester]	2.82 nM
CC(C)(C)OC(=O)N1Cc2cc(Cl)ccc2-n2c(nnc2[C@H]2CC[C@@H](OC3CCCCC3)CC2)C1 [Example 42, cis-8-Chloro-1-(4-cyclohexyloxy-cyclohexyl)-4H,6H-2,3,5,10b-tetraaza-benzoazulene-5-carboxylic acid tert-butyl ester]	17.8 nM

Same assay, conditions: membranes of HEK293 cells transiently transfected with human V1a receptor; 3H-Vasopressin; Ki calculated using the Cheng-Prussoff equation; read-out: pKi (hV1a) (converted)

SMILES	Ki
CN1Cc2cc(Cl)ccc2-n2c(nnc2[C@H]2CC[C@H](OC(F)(F)F)CC2)C1 [Example 67, trans-8-Chloro-5-methyl-1-(4-trifluoromethoxy-cyclohexyl)-5,6-dihydro-4H-2,3,5,10b-tetraaza-benzo[e]azulene]	26.3 nM
CC(CO)O[C@H]1CC[C@H](c2nnc3n2-c2ccc(Cl)cc2CN(C)C3)CC1 (mixture of isomers) [Example 52, (RS)-trans-2-[4-(8-Chloro-5-methyl-5,6-dihydro-4H-2,3,5,10b-tetraaza-benzo[e]azulen-1-yl)-cyclohexyloxy]-propan-1-ol]	19.1 nM
CN1Cc2cc(Cl)ccc2-n2c(nnc2[C@H]2CC[C@@H](OC3CCC3)CC2)C1 [Example 35, cis-8-Chloro-1-(4-cyclobutoxy-cyclohexyl)-5-methyl-5,6-dihydro-4H-2,3,5,10b-tetraaza-benzo[e]azulene]	7.94 nM
COCC(C)O[C@H]1CC[C@H](c2nnc3n2-c2ccc(Cl)cc2CNC3)CC1 (mixture of isomers) [Example 46, (RS)-trans-8-Chloro-1-[4-(2-methoxy-1-methyl-ethoxy)-cyclohexyl]-5,6-dihydro-4H-2,3,5,10b-tetraaza-benzo[e]azulene hydrochloride]	117 nM
FC(F)(F)O[C@H]1CC[C@H](c2nnc3n2-c2ccc(Cl)cc2CNC3)CC1 [Example 66, trans-8-Chloro-1-(4-trifluoromethoxy-cyclohexyl)-5,6-dihydro-4H-2,3,5,10b-tetraaza-benzo[e]azulene hydrochloride]	195 nM
CN1Cc2cc(Cl)ccc2-n2c(nnc2[C@H]2CC[C@H](OC3CCCC3)CC2)C1 [Example 38, trans-8-Chloro-1-(4-cyclopentyloxy-cyclohexyl)-5-methyl-5,6-dihydro-4H-2,3,5,10b-tetraaza-benzo[e]azulene]	0.794 nM
CC(C)(C)OC(=O)N1Cc2cc(Cl)ccc2-n2c(nnc2[C@H]2CC[C@H](OC(F)(F)F)CC2)C1 [Example 65, trans-8-Chloro-1-(4-trifluoromethoxy-cyclohexyl)-4H,6H-2,3,5,10b-tetraaza-benzo[e]azulene-5-carboxylic acid tert-butyl ester]	14.5 nM
CCO[C@H]1CC[C@H](c2nnc3n2-c2ccc(Cl)cc2CN(C(=O)OC(C)(C)C)C3)CC1 [Example 2, trans-8-Chloro-1-(4-ethoxy-cyclohexyl)-4H,6H-2,3,5,10b-tetraaza-benzo[e]azulene-5-carboxylic acid tert-butyl ester]	2.4 nM
CC(C)O[C@H]1CC[C@H](c2nnc3n2-c2ccc(Cl)cc2CN(C(=O)CO)C3)CC1 [Example 17, trans-1-[8-Chloro-1-(4-isopropoxy-cyclohexyl)-4H,6H-2,3,5,10b-tetraaza-benzoazulen-5-yl]-2-hydroxy-ethanone]	3.47 nM
CCO[C@H]1CC[C@H](c2nnc3n2-c2ccc(Cl)cc2CNC3)CC1 [Example 3, trans-8-Chloro-1-(4-ethoxy-cyclohexyl)-5,6-dihydro-4H-2,3,5,10b-tetraaza-benzo[e]azulene hydrochloride]	63.1 nM
CC(C)O[C@H]1CC[C@@H](c2nnc3n2-c2ccc(Cl)cc2CN(C(=O)OC(C)(C)C)C3)CC1 [Example 22, cis-8-Chloro-1-(4-isopropoxy-cyclohexyl)-4H,6H-2,3,5,10b-tetraaza-benzo[e]azulene-5-carboxylic acid tert-butyl ester]	8.91 nM
CCC(C)O[C@H]1CC[C@H](c2nnc3n2-c2ccc(Cl)cc2CNC3)CC1 (mixture of isomers) [Example 26, (RS)-trans-1-(4-sec-Butoxy-cyclohexyl)-8-chloro-5,6-dihydro-4H-2,3,5,10b-tetraaza-benzo[e]azulene hydrochloride]	12.6 nM
CC(C)O[C@H]1CC[C@H](c2nnc3n2-c2ccc(Cl)cc2CN(CCO)C3)CC1 [Example 12, trans-2-[8-Chloro-1-(4-isopropoxy-cyclohexyl)-4H,6H-2,3,5,10b-tetraaza-benzoazulen-5-yl]-ethanol]	2.29 nM
CC[C@@H](C)O[C@H]1CC[C@H](c2nnc3n2-c2ccc(Cl)cc2CN(C)C3)CC1 (single isomer, unassigned) [Example 29, (−)-trans-1-(4-sec-Butoxy-cyclohexyl)-8-chloro-5-methyl-5,6-dihydro-4H-2,3,5,10b-tetraaza-benzo[e]azulene]	1.58 nM
CCO[C@H]1CC[C@@H](c2nnc3n2-c2ccc(Cl)cc2CNC3)CC1 [Example 6, cis-8-Chloro-1-(4-ethoxy-cyclohexyl)-5,6-dihydro-4H-2,3,5,10b-tetraaza-benzo[e]azulene hydrochloride]	891 nM
CCC(C)O[C@H]1CC[C@H](c2nnc3n2-c2ccc(Cl)cc2CN(C)C3)CC1 (mixture of isomers) [Example 27, (RS)-trans-1-(4-sec-Butoxy-cyclohexyl)-8-chloro-5-methyl-5,6-dihydro-4H-2,3,5,10b-tetraaza-benzo[e]azulene]	2.09 nM
CC(C)O[C@H]1CC[C@H](c2nnc3n2-c2ccc(Cl)cc2CN(C)C3)CC1 [Example 10, trans-8-Chloro-1-(4-isopropoxy-cyclohexyl)-5-methyl-5,6-dihydro-4H-2,3,5,10b-tetraaza-benzo[e]azulene]	2.82 nM
CC(CO)O[C@H]1CC[C@H](c2nnc3n2-c2ccc(Cl)cc2CN(C(=O)OC(C)(C)C)C3)CC1 (mixture of isomers) [Example 50, (RS)-trans-8-Chloro-1-[4-(2-hydroxy-1-methyl-ethoxy)-cyclohexyl]-4H,6H-2,3,5,10b-tetraaza-benzo[e]azulene-5-carboxylic acid tert-butyl ester]	2.69 nM
CC(C)(C)OC(=O)N1Cc2cc(Cl)ccc2-n2c(nnc2[C@H]2CC[C@H](OC(C)(C)C)CC2)C1 [Example 68, trans-1-(4-tert-Butoxy-cyclohexyl)-8-chloro-4H,6H-2,3,5,10b-tetraaza-benzo[e]azulene-5-carboxylic acid tert-butyl ester]	3.8 nM
CCC(C)O[C@H]1CC[C@H](c2nnc3n2-c2ccc(Cl)cc2CN(C(=O)OC(C)(C)C)C3)CC1 (mixture of isomers) [Example 25, (RS)-trans-1-(4-sec-Butoxy-cyclohexyl)-8-chloro-4H,6H-2,3,5,10b-tetraaza-benzo[e]azulene-5-carboxylic acid tert-butyl ester]	3.72 nM
CN1Cc2cc(Cl)ccc2-n2c(nnc2[C@H]2CC[C@@H](OC3CCOCC3)CC2)C1 [Example 64, cis-8-Chloro-5-methyl-1-[4-(tetrahydro-pyran-4-yloxy)-cyclohexyl]-5,6-dihydro-4H-2,3,5,10b-tetraaza-benzoazulene]	17 nM
CC(=O)OCC(=O)N1Cc2cc(Cl)ccc2-n2c(nnc2[C@H]2CC[C@H](OC(C)C)CC2)C1 [Example 16, trans-Acetic acid 2-[8-chloro-1-(4-isopropoxy-cyclohexyl)-4H,6H-2,3,5,10b-tetraaza-benzoazulen-5-yl]-2-oxo-ethyl ester]	3.47 nM
CC(C)O[C@H]1CC[C@@H](c2nnc3n2-c2ccc(Cl)cc2CN(C)C3)CC1 [Example 24, cis-8-Chloro-1-(4-isopropoxy-cyclohexyl)-5-methyl-5,6-dihydro-4H-2,3,5,10b-tetraaza-benzo[e]azulene]	26.9 nM
CN1Cc2cc(Cl)ccc2-n2c(nnc2[C@H]2CC[C@H](OC3CCOCC3)CC2)C1 [Example 62, trans-8-Chloro-5-methyl-1-[4-(tetrahydro-pyran-4-yloxy)-cyclohexyl]-5,6-dihydro-4H-2,3,5,10b-tetraaza-benzoazulene]	20 nM
CC(C)O[C@H]1CC[C@H](c2nnc3n2-c2ccc(Cl)cc2CNC3)CC1 [Example 9, trans-8-Chloro-1-(4-isopropoxy-cyclohexyl)-5,6-dihydro-4H-2,3,5,10b-tetraaza-benzo[e]azulene hydrochloride]	17.4 nM
